Test results reported in paper PMC8213057, “Targeting ALK2: An Open Science Approach to Developing Therapeutics for the Treatment of Diffuse Intrinsic Pontine Glioma” (Journal of Medicinal Chemistry, 2020).

Key:
JAK3 = biological target: T1, JAK3 (Homo sapiens, UniProt P52333); test: biochemical; conditions: read-out: % enzyme activity, 1 μM; Run 1, Run 2
T1 sequence (P52333 1-1124): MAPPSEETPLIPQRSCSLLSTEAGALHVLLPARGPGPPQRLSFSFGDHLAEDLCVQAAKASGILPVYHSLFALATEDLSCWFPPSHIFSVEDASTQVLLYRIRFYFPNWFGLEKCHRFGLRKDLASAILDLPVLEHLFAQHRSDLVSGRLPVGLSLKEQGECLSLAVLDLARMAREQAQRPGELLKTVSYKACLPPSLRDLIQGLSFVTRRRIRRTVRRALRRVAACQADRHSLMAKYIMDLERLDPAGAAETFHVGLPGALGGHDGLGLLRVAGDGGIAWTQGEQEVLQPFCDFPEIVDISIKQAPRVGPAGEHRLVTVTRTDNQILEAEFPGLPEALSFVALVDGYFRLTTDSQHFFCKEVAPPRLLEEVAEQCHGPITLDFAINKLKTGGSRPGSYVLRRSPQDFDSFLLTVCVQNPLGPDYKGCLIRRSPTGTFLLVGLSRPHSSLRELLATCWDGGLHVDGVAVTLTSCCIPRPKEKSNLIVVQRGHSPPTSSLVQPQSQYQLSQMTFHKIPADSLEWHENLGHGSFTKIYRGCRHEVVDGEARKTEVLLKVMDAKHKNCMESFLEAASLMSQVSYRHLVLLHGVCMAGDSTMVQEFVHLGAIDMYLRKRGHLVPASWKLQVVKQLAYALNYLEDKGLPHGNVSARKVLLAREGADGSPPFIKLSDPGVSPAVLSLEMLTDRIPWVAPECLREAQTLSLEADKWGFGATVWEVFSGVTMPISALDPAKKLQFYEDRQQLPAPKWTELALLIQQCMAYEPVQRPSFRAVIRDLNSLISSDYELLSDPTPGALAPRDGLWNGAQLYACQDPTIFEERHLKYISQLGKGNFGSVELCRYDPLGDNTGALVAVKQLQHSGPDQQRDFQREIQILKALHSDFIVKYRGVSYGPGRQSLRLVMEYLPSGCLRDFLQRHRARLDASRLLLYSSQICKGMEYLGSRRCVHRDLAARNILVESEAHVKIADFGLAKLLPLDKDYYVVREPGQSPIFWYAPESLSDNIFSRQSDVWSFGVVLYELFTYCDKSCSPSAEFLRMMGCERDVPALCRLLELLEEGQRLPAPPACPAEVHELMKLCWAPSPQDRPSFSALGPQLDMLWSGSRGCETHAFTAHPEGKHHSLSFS

LOK/STK10 [1] = biological target: T2, LOK/STK10 (Homo sapiens, UniProt O94804); conditions: 1 μM; Run 1, Run 2
CDK1/cyclin A = CDK1/cyclin A (Homo sapiens, UniProt P06493); conditions: 1 μM; Run 1, Run 2
CAMK1a = CAMK1a (Homo sapiens, UniProt Q14012); test: biochemical; conditions: read-out: % enzyme activity, 1 μM; Run 1, Run 2
RAF1 = RAF1 (Homo sapiens, UniProt P04049); conditions: 1 μM; Run 1, Run 2
AKT2 = AKT2 (Homo sapiens, UniProt P31751); conditions: 1 μM; Run 1, Run 2
EGFR = EGFR (Homo sapiens, UniProt P00533); conditions: 1 μM; Run 1, Run 2
TNK1 = biological target: T3, TNK1 (Homo sapiens, UniProt Q13470); test: biochemical; conditions: read-out: % enzyme activity, 1 μM; Run 1, Run 2
T3 sequence (Q13470 1-666): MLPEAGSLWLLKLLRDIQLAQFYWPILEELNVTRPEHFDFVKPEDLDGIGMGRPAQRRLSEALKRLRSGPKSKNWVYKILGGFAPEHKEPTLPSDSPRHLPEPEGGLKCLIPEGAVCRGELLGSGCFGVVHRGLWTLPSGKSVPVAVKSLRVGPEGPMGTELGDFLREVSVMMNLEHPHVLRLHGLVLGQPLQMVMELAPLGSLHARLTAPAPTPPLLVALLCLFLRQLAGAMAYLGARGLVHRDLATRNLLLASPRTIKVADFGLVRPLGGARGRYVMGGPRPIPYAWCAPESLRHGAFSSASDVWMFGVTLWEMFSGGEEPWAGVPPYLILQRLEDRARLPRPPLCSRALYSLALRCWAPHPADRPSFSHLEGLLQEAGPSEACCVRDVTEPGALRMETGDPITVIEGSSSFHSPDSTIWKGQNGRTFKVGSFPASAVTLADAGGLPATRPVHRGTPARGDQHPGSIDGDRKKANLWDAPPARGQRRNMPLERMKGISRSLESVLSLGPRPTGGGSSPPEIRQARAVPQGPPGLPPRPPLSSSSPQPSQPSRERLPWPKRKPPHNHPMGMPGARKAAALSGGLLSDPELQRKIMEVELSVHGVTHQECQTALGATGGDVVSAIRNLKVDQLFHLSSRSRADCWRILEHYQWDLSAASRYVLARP

MST3/STK24 = MST3/STK24 (Homo sapiens, UniProt Q9Y6E0); test: biochemical; conditions: read-out: % enzyme activity, 1 μM; Run 1, Run 2
FMS = biological target: T4, FMS (Homo sapiens, UniProt P07333); test: 375-member kinase panel; format: biochemical; conditions: Run 1, Run 2; for % enzyme activity: 1 μM; for remaining activity at 1 µM: read-out: % enzyme activity, 1 μM
T4 construct: purchased Reaction Biology Corporation

P38b/MAPK11 = P38b/MAPK11 (Homo sapiens, UniProt Q15759); conditions: 1 μM; Run 1, Run 2
CDC7/DBF4 = CDC7/DBF4 (Homo sapiens, UniProt O00311); conditions: 1 μM; Run 1, Run 2
GSK3b = GSK3b (Homo sapiens, UniProt P49841); test: biochemical; conditions: read-out: % enzyme activity, 1 μM; Run 1, Run 2
FGR = FGR (Homo sapiens, UniProt P09769); test: biochemical; conditions: read-out: % enzyme activity, 1 μM; Run 1, Run 2
JAK1 = JAK1 (Homo sapiens, UniProt P23458); test: biochemical; conditions: read-out: % enzyme activity, 1 μM; Run 1, Run 2
LOK/STK10 [2] = biological target: T2, LOK/STK10; test: biochemical; conditions: read-out: % enzyme activity, 1 μM; Run 1, Run 2

T4 sequence (P07333 20-972): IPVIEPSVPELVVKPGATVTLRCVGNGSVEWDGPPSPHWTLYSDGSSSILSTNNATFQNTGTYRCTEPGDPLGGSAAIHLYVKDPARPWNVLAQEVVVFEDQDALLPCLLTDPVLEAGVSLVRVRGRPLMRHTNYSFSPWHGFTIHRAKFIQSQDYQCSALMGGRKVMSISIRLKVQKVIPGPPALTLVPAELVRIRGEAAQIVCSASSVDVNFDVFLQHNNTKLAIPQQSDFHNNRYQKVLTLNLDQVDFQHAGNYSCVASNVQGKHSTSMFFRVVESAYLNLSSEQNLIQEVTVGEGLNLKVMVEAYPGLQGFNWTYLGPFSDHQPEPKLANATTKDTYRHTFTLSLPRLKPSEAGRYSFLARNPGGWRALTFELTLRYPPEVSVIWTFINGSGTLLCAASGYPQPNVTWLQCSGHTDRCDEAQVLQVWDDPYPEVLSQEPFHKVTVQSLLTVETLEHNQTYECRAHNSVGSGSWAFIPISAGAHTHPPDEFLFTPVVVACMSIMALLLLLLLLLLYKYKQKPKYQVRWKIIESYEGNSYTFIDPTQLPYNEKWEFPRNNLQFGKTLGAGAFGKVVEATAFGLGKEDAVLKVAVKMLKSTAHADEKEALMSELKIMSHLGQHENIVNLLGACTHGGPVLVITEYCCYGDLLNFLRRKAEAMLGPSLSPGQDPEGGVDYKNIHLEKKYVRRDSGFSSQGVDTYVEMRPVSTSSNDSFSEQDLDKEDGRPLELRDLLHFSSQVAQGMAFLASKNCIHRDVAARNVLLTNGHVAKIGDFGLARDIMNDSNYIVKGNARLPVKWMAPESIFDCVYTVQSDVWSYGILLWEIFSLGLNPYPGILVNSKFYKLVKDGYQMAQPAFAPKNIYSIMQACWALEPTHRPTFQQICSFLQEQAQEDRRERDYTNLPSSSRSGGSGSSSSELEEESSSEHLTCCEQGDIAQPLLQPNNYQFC
T2 sequence (O94804 whole entry): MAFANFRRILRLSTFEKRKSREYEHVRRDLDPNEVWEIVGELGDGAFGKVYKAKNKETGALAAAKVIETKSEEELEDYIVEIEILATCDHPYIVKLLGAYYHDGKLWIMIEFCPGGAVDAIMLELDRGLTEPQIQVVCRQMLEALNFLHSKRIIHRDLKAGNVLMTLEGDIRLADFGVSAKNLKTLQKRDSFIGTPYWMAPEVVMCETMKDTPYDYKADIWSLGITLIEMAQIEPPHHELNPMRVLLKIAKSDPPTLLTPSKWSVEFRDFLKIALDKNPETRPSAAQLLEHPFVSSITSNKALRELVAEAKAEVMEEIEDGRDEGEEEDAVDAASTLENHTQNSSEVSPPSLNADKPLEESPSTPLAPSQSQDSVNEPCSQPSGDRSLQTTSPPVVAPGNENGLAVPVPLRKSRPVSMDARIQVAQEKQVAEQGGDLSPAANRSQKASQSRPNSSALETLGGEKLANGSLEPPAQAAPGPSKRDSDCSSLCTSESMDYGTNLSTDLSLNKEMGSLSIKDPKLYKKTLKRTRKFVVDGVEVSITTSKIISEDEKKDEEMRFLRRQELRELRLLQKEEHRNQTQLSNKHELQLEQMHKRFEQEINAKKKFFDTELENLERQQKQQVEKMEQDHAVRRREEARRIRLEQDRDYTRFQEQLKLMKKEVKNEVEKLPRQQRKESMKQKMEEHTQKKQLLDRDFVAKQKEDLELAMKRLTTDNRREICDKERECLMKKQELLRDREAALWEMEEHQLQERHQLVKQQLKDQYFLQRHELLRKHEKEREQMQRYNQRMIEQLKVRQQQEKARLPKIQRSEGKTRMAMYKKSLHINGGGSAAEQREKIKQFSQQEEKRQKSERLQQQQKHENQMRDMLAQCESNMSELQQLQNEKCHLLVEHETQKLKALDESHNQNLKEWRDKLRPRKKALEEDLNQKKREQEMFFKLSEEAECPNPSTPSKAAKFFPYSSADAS
MST3/STK24, sequence (Q9Y6E0 whole entry): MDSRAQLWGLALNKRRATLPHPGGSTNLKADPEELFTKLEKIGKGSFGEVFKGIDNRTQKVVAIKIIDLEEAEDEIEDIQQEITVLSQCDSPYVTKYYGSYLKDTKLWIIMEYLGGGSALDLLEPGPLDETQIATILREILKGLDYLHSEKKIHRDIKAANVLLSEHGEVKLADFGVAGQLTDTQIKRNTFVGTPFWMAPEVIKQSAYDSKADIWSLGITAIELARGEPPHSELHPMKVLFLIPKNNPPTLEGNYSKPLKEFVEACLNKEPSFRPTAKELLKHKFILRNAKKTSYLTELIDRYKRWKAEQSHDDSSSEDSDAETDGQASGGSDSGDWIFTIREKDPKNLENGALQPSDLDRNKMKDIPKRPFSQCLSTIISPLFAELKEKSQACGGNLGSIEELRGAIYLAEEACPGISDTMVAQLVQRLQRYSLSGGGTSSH
JAK1, sequence (P23458 whole entry): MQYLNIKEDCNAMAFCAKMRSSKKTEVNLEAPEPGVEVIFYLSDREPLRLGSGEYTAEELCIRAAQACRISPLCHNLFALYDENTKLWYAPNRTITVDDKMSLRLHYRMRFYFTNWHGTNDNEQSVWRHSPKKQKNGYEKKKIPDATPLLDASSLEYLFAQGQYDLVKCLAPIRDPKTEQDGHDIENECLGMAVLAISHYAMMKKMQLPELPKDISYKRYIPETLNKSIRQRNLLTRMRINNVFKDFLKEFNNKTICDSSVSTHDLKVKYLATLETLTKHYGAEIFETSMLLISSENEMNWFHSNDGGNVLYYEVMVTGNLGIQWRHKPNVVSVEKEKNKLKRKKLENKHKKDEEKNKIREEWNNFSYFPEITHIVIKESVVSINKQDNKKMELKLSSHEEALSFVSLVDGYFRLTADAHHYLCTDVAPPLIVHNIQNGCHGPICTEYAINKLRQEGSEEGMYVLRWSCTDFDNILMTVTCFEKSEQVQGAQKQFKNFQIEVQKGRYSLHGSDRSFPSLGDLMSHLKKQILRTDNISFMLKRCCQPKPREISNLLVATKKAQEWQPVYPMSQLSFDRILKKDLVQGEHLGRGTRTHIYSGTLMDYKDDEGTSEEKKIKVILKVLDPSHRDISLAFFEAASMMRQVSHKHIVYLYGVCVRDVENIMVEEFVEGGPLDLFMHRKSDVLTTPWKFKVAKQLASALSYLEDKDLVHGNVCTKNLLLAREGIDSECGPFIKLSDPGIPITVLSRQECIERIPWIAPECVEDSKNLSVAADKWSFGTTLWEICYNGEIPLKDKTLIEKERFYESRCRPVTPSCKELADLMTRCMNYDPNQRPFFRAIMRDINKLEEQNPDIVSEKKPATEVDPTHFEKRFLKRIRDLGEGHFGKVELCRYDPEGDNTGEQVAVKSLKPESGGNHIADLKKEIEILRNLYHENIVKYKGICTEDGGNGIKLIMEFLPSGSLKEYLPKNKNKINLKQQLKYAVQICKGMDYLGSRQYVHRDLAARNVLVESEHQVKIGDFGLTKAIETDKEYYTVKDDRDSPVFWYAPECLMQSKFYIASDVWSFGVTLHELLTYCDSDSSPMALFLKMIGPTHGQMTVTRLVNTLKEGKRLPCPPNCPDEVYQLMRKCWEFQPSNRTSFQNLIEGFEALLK
CDK1/cyclin A, sequence (P20248 whole entry): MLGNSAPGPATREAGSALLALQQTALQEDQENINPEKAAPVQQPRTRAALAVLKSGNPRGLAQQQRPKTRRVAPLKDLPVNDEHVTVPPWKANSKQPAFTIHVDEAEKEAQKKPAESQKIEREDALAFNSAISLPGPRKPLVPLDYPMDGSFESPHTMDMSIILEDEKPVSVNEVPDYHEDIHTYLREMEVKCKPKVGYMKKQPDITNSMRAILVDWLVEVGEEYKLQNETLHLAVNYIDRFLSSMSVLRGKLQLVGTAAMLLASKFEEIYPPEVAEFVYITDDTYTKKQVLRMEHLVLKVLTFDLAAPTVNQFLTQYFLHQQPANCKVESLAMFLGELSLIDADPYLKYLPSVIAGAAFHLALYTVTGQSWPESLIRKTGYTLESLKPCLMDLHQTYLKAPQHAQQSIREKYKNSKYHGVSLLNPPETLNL
CDK1/cyclin A, sequence (P06493 whole entry): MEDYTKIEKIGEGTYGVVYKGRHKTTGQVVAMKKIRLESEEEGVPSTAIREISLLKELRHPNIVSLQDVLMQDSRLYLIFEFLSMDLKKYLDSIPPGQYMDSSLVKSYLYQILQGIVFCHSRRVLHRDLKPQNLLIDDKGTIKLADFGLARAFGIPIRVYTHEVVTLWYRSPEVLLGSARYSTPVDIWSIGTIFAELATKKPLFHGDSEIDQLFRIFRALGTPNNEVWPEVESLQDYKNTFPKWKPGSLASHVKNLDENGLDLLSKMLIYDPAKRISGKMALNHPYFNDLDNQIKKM
FGR, sequence (P09769 whole entry): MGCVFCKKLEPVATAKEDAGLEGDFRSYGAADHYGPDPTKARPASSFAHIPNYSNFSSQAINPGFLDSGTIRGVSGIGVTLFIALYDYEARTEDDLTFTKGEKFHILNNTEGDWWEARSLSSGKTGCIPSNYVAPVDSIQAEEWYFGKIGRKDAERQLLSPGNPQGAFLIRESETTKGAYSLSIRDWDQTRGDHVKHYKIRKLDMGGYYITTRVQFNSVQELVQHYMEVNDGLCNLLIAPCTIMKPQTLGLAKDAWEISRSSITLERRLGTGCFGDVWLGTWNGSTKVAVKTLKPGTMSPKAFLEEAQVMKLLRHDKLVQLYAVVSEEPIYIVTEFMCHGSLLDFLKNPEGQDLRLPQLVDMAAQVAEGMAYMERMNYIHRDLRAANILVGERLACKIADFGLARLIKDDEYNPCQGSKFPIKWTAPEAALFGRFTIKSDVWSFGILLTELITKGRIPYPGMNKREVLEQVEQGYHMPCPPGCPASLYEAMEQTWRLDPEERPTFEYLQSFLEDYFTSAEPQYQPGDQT

SMILES	remaining activity at 1 µM (JAK3)	% enzyme activity (LOK/STK10 [1])	% enzyme activity (CDK1/cyclin A)	remaining activity at 1 µM (CAMK1a)	% enzyme activity (RAF1)	% enzyme activity (AKT2)	% enzyme activity (EGFR)	remaining activity at 1 µM (TNK1)	remaining activity at 1 µM (MST3/STK24)	% enzyme activity (FMS)	remaining activity at 1 µM (FMS)	% enzyme activity (P38b/MAPK11)	% enzyme activity (CDC7/DBF4)	remaining activity at 1 µM (GSK3b)	remaining activity at 1 µM (FGR)	remaining activity at 1 µM (JAK1)	remaining activity at 1 µM (LOK/STK10 [2])
COc1cc(-c2cncc(-c3ccc(N4CCN(C)CC4)cc3)c2C)cc(F)c1C(N)=O [Compound 26a, 2-Fluoro-6-methoxy-4-(4-methyl-5-(4-(4-methylpiperazin-1-yl)phenyl)pyridin-3-yl)benzamide]	106%	51.51%	92.50%	94.9%	78.57%	91.70%	95.66%	105%	90.2%	75.66%	82.2%	92.20%	91.84%	88.5%	83.1%	102%	51.8%
COc1cc(-c2cncc(-c3ccc(N4C[C@@H](C)N(C)[C@@H](C)C4)cc3)c2C)cc(F)c1C(N)=O [Compound 26c, 2-Fluoro-6-methoxy-4-(4-methyl-5-(4-((3R,5S)-3,4,5-trimethylpiperazin-1-yl)phenyl)pyridin-3-yl)benzamide]	101%	68.53%	89.52%	97.5%	83.85%	92.08%	93.91%	98.6%	96.3%	78.83%	79.5%	95.51%	93.55%	88.8%	89.4%	101%	68.7%
